In patent publication US20040204577A1, “Novel peptide-forming enzyme gene” (Ajinomoto Co., Inc., priority 2003, published 2004):
Where a SMILES comes first, the peptide text is derived from it.

System: peptide-forming enzyme (Mono S fraction enzyme)
Assay: Enzyme substrate specificity (1)-(10), (13), (14): peptide production
Format: biochemical, Empedobacter brevis
Settings: pH 9.0, 25° C., 3 hours
Method in brief: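 Mono S enzyme fraction in 100 mM borate buffer (pH 9.0) with 10 mM EDTA and 100 mM carboxy component (amino acid methyl esters or amides); amine components (L-glutamine, amino acids, amino acid amides or methylamine) at 150 mM, or 200 mM L-glutamine with varied esters. Reactions ran at 25° C for 2–3 hours; 0.1% Tween-80 added for Trp/Tyr-OMe.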

Work on C[C@H](N)C(=O)N[C@@H](CCC(N)=O)C(=O)O [L-Ala-L-Gln, L-alanyl-L-glutamine] (H-Ala-Gln-OH) yielded a Formed peptide (100 mM L-alanine methyl ester hydrochloride, L-amino acid 150 mM) of 79.3 mM, a Formed peptide (L-amino acid amide hydrochloride as carboxy component 100 mM, L-amino acid 150 mM) of 7.6 mM and a Formed peptide (L-amino acid methyl ester hydrochloride 100 mM, 150 mM L-glutamine) of 74.6 mM.
